Assay results published in US6737383B1, “Herbicidal oxadiazolidines” (priority 1999, dated 2004).

Legend:
[1] = tested on: velvetleaf; experiment: Test B pre/postemergence velvetleaf; type: in vivo, Abutilon theophrasti; conditions: Preemergence, scale of 0 to 10 where 0 is no effect and 10 is complete control
In short: (§1)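 Response is a visual 0-to-10 score relative to untreated plants, where 0 means no effect and 10 means complete control, taken twelve to sixteen days after application. Treatments went onto soil at planting and onto foliage of 1- to 4-leaf plants, using a surfactant-containing non-phytotoxic solvent.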

[2] = tested on: surinam grass; experiment: Test B pre/postemergence surinam grass; type: in vivo, Brachiaria decumbens; conditions: Preemergence
In short: as §1

[3] = tested on: bedstraw; experiment: Test B pre/postemergence bedstraw; type: in vivo, Galium aparine; conditions: Preemergence
In short: as §1

[4] = tested on: pigweed; experiment: Test B pre/postemergence pigweed; type: in vivo, Amaranthus retroflexus; conditions: Preemergence, scale of 0 to 10 where 0 is no effect and 10 is complete control
In short: as §1

[5] = tested on: corn; experiment: Test B pre/postemergence corn; type: in vivo, Zea mays; conditions: Preemergence
In short: as §1

[6] = tested on: morningglory; experiment: Test B pre/postemergence morningglory; type: in vivo, Ipomoea hederacea; conditions: Preemergence, scale of 0 to 10 where 0 is no effect and 10 is complete control
In short: as §1

[7] = tested on: cocklebur; experiment: Test B pre/postemergence cocklebur; type: in vivo, Xanthium strumarium; conditions: Preemergence
In short: as §1

[8] = tested on: sugar beet; experiment: Test B pre/postemergence sugar beet; type: in vivo, Beta vulgaris; conditions: Preemergence, scale of 0 to 10 where 0 is no effect and 10 is complete control
In short: as §1

[9] = tested on: wheat; experiment: Test B pre/postemergence wheat; type: in vivo, Triticum aestivum; conditions: Preemergence, scale of 0 to 10 where 0 is no effect and 10 is complete control
In short: as §1

[10] = tested on: rape; experiment: Test B pre/postemergence rape; type: in vivo, Brassica napus; conditions: Preemergence, scale of 0 to 10 where 0 is no effect and 10 is complete control
In short: as §1

[11] = tested on: purple nutsedge; experiment: Test B pre/postemergence purple nutsedge; type: in vivo, Cyperus rotundus; conditions: Preemergence, scale of 0 to 10 where 0 is no effect and 10 is complete control
In short: as §1

[12] = tested on: soybean; experiment: Test B pre/postemergence soybean; type: in vivo, Glycine max; conditions: Preemergence, scale of 0 to 10 where 0 is no effect and 10 is complete control
In short: as §1

[13] = tested on: wild oat; experiment: Test B pre/postemergence wild oat; type: in vivo, Avena fatua; conditions: Preemergence, scale of 0 to 10 where 0 is no effect and 10 is complete control
In short: as §1

[14] = tested on: blackgrass; experiment: Test B pre/postemergence blackgrass; type: in vivo, Alopecurus myosuroides; conditions: Preemergence
In short: as §1

[15] = tested on: giant foxtail; experiment: Test B pre/postemergence giant foxtail; type: in vivo, Setaria faberii; conditions: Preemergence, scale of 0 to 10 where 0 is no effect and 10 is complete control
In short: as §1

[16] = tested on: crabgrass; experiment: Test B pre/postemergence crabgrass; type: in vivo, Digitaria sanguinalis; conditions: Preemergence
In short: as §1

[17] = Rate 62 g/ha, scale of 0 to 10 where 0 is no effect and 10 is complete control
[18] = Rate 125 g/ha, scale of 0 to 10 where 0 is no effect and 10 is complete control
[19] = Rate 250 g/ha, scale 0 to 10 (0 no effect, 10 complete control)
[20] = Rate 500 g/ha, scale of 0 to 10 where 0 is no effect and 10 is complete control

`CC(C)N(C(=O)n1oc(=O)n(C(C)C(=S)N(C)C)c1=O)c1ccccc1` (centres unmarked) [Compound 704] was tested, and the “Velvetleaf plant response rating” value ([1]; Rate 62 g/ha) was 0, the “Plant response rating, Velvetleaf” value ([1]; Rate 125 g/ha) was 0 and the “B. signalgrass plant response rating” value [2, 17] was 2. For the same molecule, the “Plant response rating, B. signalgrass” value [2, 18] was 5, the “Plant response rating, B. signalgrass” value [2, 19] was 8 and the “Plant response rating, B. signalgrass” value [2, 20] was 9. The “Bedstraw plant response rating” value [3, 17] was 0, the “Plant response rating, Bedstraw” value [3, 18] was 0 and the “Plant response rating, Bedstraw” value [3, 19] was 0. For the same molecule, the “Redroot pigweed plant response rating” value ([4]; Rate 62 g/ha) was 0, the “Plant response rating, Redroot pigweed” value ([4]; Rate 125 g/ha) was 5 and the “Corn plant response rating” value [5, 17] was 0. For the same molecule, the “Plant response rating, Corn” value [5, 18] was 0, the “Plant response rating, Corn” value [5, 19] was 0 and the “Morningglory plant response rating” value ([6]; Rate 62 g/ha) was 0. The “Plant response rating, Morningglory” value ([6]; Rate 125 g/ha) was 0, the “Cocklebur plant response rating” value [7, 17] was 0 and the “Plant response rating, Cocklebur” value [7, 18] was 0. For the same molecule, the “Plant response rating, Cocklebur” value [7, 19] was 0, the “Plant response rating, Cocklebur” value [7, 20] was 0 and the “Sugarbeets plant response rating” value ([8]; Rate 62 g/ha) was 0. For the same molecule, the “Plant response rating, Sugarbeets” value ([8]; Rate 125 g/ha) was 3, the “Wheat plant response rating” value ([9]; Rate 62 g/ha) was 0 and the “Plant response rating, Wheat” value ([9]; Rate 125 g/ha) was 0. The “Rape plant response rating” value ([10]; Rate 62 g/ha) was 0, the “Plant response rating, Rape” value ([10]; Rate 125 g/ha) was 0 and the “Nutsedge plant response rating” value ([11]; Rate 62 g/ha) was 0. The “Plant response rating, Nutsedge” value ([11]; Rate 125 g/ha) was 0, the “Soybean plant response rating” value ([12]; Rate 62 g/ha) was 0 and the “Plant response rating, Soybean” value ([12]; Rate 125 g/ha) was 0. For the same molecule, the “Wild oats plant response rating” value ([13]; Rate 62 g/ha) was 0, the “Plant response rating, Wild oats” value ([13]; Rate 125 g/ha) was 0 and the “Blackgrass plant response rating” value [14, 17] was 2. For the same molecule, the “Plant response rating, Blackgrass” value [14, 18] was 6, the “Plant response rating, Blackgrass” value [14, 19] was 10 and the “Plant response rating, Blackgrass” value [14, 20] was 10. For the same molecule, the “Giant foxtail plant response rating” value ([15]; Rate 62 g/ha) was 4, the “Plant response rating, Giant foxtail” value ([15]; Rate 125 g/ha) was 7 and the “Crabgrass plant response rating” value [16, 17] was 5. The “Plant response rating, Crabgrass” value [16, 18] was 8 and the “Plant response rating, Crabgrass” value [16, 19] was 8.
